Source: patent US9815839B2, “N-(1-(substituted-phenyl)ethyl)-9H-purin-6-amines as PI3K inhibitors” (Incyte Corporation, priority 2010, dated 2017)
Where a name gives a salt, the structure may show the parent alone.

molecular target: T1, PI3Kδ (p110δ/p85α) (Homo sapiens, UniProt O00329); test: PI3Kδ scintillation proximity assay; assay type: biochemical; details: 20 μM ATP, 4 nM PI3Kδ
T1 construct: purchased Millipore (Bedford, Mass.)
Text: Example A: PI3Kδ Scintillation Proximity Assay
Materials: [γ-^33P]ATP (10 mCi/mL) was purchased from Perkin-Elmer (Waltham, Mass.). Lipid kinase substrate, D-myo-Phosphatidylinositol 4,5-bisphosphate (PtdIns(4,5)P2)D (+)-sn-1,2-di-O-octanoylglyceryl, 3-O-phospho linked (PIP2), CAS 204858-53-7, was purchased from Echelon Biosciences (Salt Lake City, Utah). PI3Kδ (p110δ/p85α) was purchased from Millipore (Bedford, Mass.). ATP, MgCl2, DTT, EDTA, MOPS and CHAPS were purchased from Sigma-Aldrich (St. Louis, Mo.). Wheat Germ Agglutinin (WGA) YSi SPA Scintillation Beads was purchased from GE healthcare life sciences (Piscataway, N.J.).
The kinase reaction was conducted in polystyrene 384-well matrix white plate from Thermo Fisher Scientific in a final volume of 25 μL. Inhibitors were first diluted serially in DMSO and added to the plate wells before the addition of other reaction components. The final concentration of DMSO in the assay was 0.5%. The PI3K assays were carried out at room temperature in 20 mM MOPS, pH 6.7, 10 mM MgCl2, 5 mM DTT and CHAPS 0.03%. Reactions were initiated by the addition of ATP, the final reaction mixture consisted of 20 μM PIP2,20 μM ATP, 0.2 μCi [γ-^33P] ATP, 4 nM PI3Kδ. Reactions were incubated for 210 minutes and terminated by the addition of 40 μL SPA beads suspended in quench buffer: 150 mM potassium phosphate pH 8.0, 20% glycerol. 25 mM EDTA, 400 µM ATP. The final concentration of SPA beads is 1.0 mg/mL. After the plate sealing, plates were shaken overnight at room temperature and centrifuged at 1800 rpm for 10 minutes, the radioactivity of the product was determined by scintillation counting on Topcount (Perkin-Elmer). IC50 determination was performed by fitting the curve of percent control activity versus the log of the inhibitor concentration using the GraphPad Prism 3.0 software.

T1 sequence (O00329 whole entry, species assumed): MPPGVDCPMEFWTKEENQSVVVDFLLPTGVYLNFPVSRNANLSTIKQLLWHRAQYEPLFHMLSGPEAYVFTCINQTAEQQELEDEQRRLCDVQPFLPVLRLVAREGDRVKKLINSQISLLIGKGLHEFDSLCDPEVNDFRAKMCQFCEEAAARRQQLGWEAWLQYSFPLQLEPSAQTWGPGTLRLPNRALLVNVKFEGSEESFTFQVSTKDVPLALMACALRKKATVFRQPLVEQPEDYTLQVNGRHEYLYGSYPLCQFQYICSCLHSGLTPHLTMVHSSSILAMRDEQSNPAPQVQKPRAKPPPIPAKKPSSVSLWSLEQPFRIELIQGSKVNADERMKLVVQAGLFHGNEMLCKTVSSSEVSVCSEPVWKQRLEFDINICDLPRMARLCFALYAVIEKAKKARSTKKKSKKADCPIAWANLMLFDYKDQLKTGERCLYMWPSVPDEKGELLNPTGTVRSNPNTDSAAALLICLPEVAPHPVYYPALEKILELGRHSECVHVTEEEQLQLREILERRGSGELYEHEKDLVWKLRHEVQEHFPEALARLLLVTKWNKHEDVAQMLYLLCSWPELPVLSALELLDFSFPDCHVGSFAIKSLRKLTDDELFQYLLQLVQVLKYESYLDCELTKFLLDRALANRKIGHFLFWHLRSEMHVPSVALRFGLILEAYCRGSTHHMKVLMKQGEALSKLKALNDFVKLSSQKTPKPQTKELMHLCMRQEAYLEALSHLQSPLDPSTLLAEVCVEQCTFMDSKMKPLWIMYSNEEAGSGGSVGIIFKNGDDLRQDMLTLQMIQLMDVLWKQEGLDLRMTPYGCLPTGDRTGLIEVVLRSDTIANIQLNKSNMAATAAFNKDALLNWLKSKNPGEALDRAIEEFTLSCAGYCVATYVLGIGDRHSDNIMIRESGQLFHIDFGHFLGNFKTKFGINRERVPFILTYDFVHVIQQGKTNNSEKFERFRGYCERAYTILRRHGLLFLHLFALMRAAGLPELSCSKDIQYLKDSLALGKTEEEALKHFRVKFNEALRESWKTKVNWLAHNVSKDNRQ
T1 sequence (P27986 whole entry partner, species assumed): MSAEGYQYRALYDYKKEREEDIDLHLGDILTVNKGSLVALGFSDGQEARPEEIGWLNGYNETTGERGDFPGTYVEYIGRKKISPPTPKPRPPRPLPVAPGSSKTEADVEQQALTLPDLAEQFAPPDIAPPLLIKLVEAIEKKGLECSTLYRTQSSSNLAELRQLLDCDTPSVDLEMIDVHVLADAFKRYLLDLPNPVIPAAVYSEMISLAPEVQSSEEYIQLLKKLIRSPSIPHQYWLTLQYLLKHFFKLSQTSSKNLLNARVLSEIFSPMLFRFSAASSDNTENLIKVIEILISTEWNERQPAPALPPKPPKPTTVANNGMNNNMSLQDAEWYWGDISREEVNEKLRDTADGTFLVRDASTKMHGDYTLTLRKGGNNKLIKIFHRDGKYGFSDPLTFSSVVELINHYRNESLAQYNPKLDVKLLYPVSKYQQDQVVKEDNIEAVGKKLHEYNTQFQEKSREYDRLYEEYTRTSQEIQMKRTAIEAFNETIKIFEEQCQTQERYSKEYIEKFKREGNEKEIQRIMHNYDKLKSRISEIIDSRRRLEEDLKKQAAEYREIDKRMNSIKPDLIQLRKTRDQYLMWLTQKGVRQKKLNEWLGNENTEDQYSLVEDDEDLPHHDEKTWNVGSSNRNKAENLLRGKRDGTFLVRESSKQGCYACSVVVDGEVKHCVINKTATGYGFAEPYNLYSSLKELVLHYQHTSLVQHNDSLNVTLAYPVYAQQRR

Compound	IC50
1-{3′-chloro-3-fluoro-6′-methoxy-2′-methyl-5′-[1-(9H-purin-6-ylamino)ethyl]biphenyl-4-yl]carbonyl)piperidin-4-ol [Example 69]	< 50 nM
COc1c(C(C)Nc2ncnc3[nH]cnc23)cc(Cl)c(C)c1-c1cnn(C2(CC#N)CC(C#N)C2)c1 (single isomer, unassigned) [Example 54, 3-(4-{3-chloro-6-methoxy-2-methyl-5-[1-(9H-purin-6-ylamino)ethyl]phenyl}-1H-pyrazol-1-yl)-3-(cyanomethyl)cyclobutanecarbonitrile]	< 50 nM
CC(Nc1ncnc2[nH]cnc12)c1cc(Cl)c(CC#N)c(C#N)c1-c1cccc(F)c1 (centres unmarked) [Example 4, 4-Chloro-3-(cyanomethyl)-3′-fluoro-6-[1-(9H-purin-6-ylamino)ethyl]biphenyl-2-carbonitrile]	500 to 1000 nM
COc1c(C(C)Nc2ncnc3[nH]cnc23)cc(Cl)c(C)c1-c1cncc(C)c1 (centres unmarked) [Example 55, N-{1-[5-chloro-2-methoxy-4-methyl-3-(5-methylpyridin-3-yl)phenyl]ethyl}-9H-purin-6-amine]	< 50 nM
COc1c(C(C)Nc2ncnc3[nH]cnc23)cc(Cl)c(C)c1-c1ccc(N)nc1 (centres unmarked) [Example 57, N-{1-[3-(6-aminopyridin-3-yl)-5-chloro-2-methoxy-4-methylphenyl]ethyl}-9H-purin-6-amine]	< 50 nM
COc1c(C(C)Nc2ncnc3[nH]cnc23)cc(Cl)c(C)c1-c1ccc(C#N)nc1 (centres unmarked) [Example 58, 5-{3-chloro-6-methoxy-2-methyl-5-[1-(9H-purin-6-ylamino)ethyl]phenyl}pyridine-2-carbonitrile]	50 to 100 nM
COc1c(C(C)Nc2ncnc3[nH]cnc23)cc(Cl)c(C)c1-c1ccc(OC(C)C)nc1 (centres unmarked) [Example 59, N-{1-[5-chloro-3-(6-isopropoxypyridin-3-yl)-2-methoxy-4-methylphenyl]ethyl}-9H-purin-6-amine]	100 to 250 nM
COc1c(C(C)Nc2ncnc3[nH]cnc23)cc(Cl)c(C)c1-c1ccc(F)c(C(N)=O)c1 (centres unmarked) [Example 61, 3′-Chloro-4-fluoro-6′-methoxy-2′-methyl-5′-[1-(9H-purin-6-ylamino)ethyl]biphenyl-3-carboxamide]	< 50 nM
COc1c(C(C)Nc2ncnc3[nH]cnc23)cc(Cl)c(C)c1-c1ccc(C(N)=O)c(F)c1 (centres unmarked) [Example 62, 3′-Chloro-3-fluoro-6′-methoxy-2′-methyl-5′-[1-(9H-purin-6-ylamino)ethyl]biphenyl-4-carboxamide]	< 50 nM
COc1c(C(C)Nc2ncnc3[nH]cnc23)cc(Cl)c(C)c1-c1ccc(C(=O)N2CC(C#N)C2)c(F)c1 (centres unmarked) [Example 63, 1-({3′-Chloro-3-fluoro-6′-methoxy-2′-methyl-5′-[1-(9H-purin-6-ylamino)ethyl]biphenyl-4-yl}carbonyl)azetidine-3-carbonitrile]	< 50 nM
CCNC(=O)c1ccc(-c2c(C)c(Cl)cc(C(C)Nc3ncnc4[nH]cnc34)c2OC)cc1F (centres unmarked) [Example 64, 3′-chloro-N-ethyl-3-fluoro-6′-methoxy-2′-methyl-5′-[1-(9H-purin-6-ylamino)ethyl]biphenyl-4-carboxamid]	< 50 nM
COc1c(C(C)Nc2ncnc3[nH]cnc23)cc(Cl)c(C)c1-c1ccc(C(=O)N(C)C)c(F)c1 (centres unmarked) [Example 65, 3′-chloro-3-fluoro-6′-methoxy-N,N,2′-trimethyl-5′-[1-(9H-purin-6-ylamino)ethyl]biphenyl-4-carboxamide]	< 50 nM
COc1c(C(C)Nc2ncnc3[nH]cnc23)cc(Cl)c(C)c1-c1ccc(C(=O)N2CCCC2)c(F)c1 (centres unmarked) [Example 66, N-{1-[5-chloro-3′-fluoro-2-methoxy-6-methyl-4′-(pyrrolidin-1-ylcarbonyl)biphenyl-3-yl]ethyl}-9H-purin-6-amine]	< 50 nM
COc1c(C(C)Nc2ncnc3[nH]cnc23)cc(Cl)c(C)c1-c1cc(F)cc(Cl)c1 (centres unmarked) [Example 85, N-[1-(3′,5-dichloro-5′-fluoro-2-methoxy-6-methylbiphenyl-3-yl)ethyl]-9H-purin-6-amine]	250 to 500 nM
COc1c(C(C)Nc2ncnc3[nH]cnc23)cc(Cl)c(C)c1-c1ccc(OC(F)(F)F)cc1 (centres unmarked) [Example 90, N-{1-[5-chloro-2-methoxy-6-methyl-4′-(trifluoromethoxy)biphenyl-3-yl]ethyl}-9H-purin-6-amine]	250 to 500 nM
COc1c(C(C)Nc2ncnc3[nH]cnc23)cc(F)c(C)c1-c1ccc(S(C)(=O)=O)cc1 (centres unmarked) [Example 118, N-{1-[5-Fluoro-2-methoxy-6-methyl-4′-(methylsulfonyl)biphenyl-3-yl]ethyl}-9H-purin-6-amine]	50 to 100 nM

The remaining lines, values ahead:

IC50	Compound
< 50 nM	COc1cncc(-c2c(C)c(Cl)cc(C(C)Nc3ncnc4[nH]cnc34)c2OC)c1 (single isomer, unassigned) [Example 113, N-{1-[5-Chloro-2-methoxy-3-(5-methoxypyridin-3-yl)-4-methylphenyl]ethyl}-9H-purin-6-amine]
< 50 nM	COc1c(C(C)Nc2ncnc3[nH]cnc23)cc(Cl)c(C)c1C1CNC(=O)C1 (single isomer, unassigned) [Example 192, 4-{3-chloro-6-methoxy-2-methyl-5-[1-(9H-purin-6-ylamino)ethyl]phenyl}pyrrolidin-2-one]
< 50 nM	COc1c(C(C)Nc2ncnc3[nH]cnc23)cc(Cl)c(C)c1C1CC(=O)N(C)C1 (single isomer, unassigned) [Example 193, 4-{3-chloro-6-methoxy-2-methyl-5-[1-(9H-purin-6-ylamino)ethyl]phenyl}-1-methylpyrrolidin-2-one]
< 50 nM	CCOc1c(C(C)Nc2ncnc3[nH]cnc23)cc(Cl)c(C#N)c1C1CN(C(C)C)C1 (single isomer, unassigned) [Example 214, 6-Chloro-3-ethoxy-2-(1-isopropylazetidin-3-yl)-4-[1-(9H-purin-6-ylamino)ethyl]benzonitrile bis(trifluoroacetate)]
250 to 500 nM	COc1c(C(C)Nc2ncnc3[nH]cnc23)cc(Cl)c(C)c1-c1ccc(Cl)cc1 (centres unmarked) [Example 99, N-[1-(4′,5-dichloro-2-methoxy-6-methylbiphenyl-3-yl)ethyl]-9H-purin-6-amine]
100 to 250 nM	COc1ccc(-c2c(C)c(Cl)cc(C(C)Nc3ncnc4[nH]cnc34)c2OC)cc1 (centres unmarked) [Example 101]
100 to 250 nM	COc1ccc(-c2c(C)c(Cl)cc(C(C)Nc3ncnc4[nH]cnc34)c2OC)cc1C (centres unmarked) [Example 102, N-[1-(5-chloro-2,4′-dimethoxy-3′,6-dimethylbiphenyl-3-yl)ethyl]-9H-purin-6-amine]
< 50 nM	COc1cccc(-c2c(C)c(Cl)cc(C(C)Nc3ncnc4[nH]cnc34)c2OC)c1 (centres unmarked) [Example 103]
< 50 nM	COc1c(C(C)Nc2ncnc3[nH]cnc23)cc(Cl)c(C)c1-c1cccc(NC(C)=O)c1 (centres unmarked) [Example 104, N-{3′-chloro-6′-methoxy-2′-methyl-5′-[1-(9H-purin-6-ylamino)ethyl]biphenyl-3-yl}acetamide]
< 50 nM	COc1c(C(C)Nc2ncnc3[nH]cnc23)cc(Cl)c(C)c1-c1ccc(F)c(F)c1 (centres unmarked) [Example 105, N-[1-(5-chloro-3′,4′-difluoro-2-methoxy-6-methylbiphenyl-3-yl)ethyl]-9H-purin-6-amine]
< 50 nM	COc1c(C(C)Nc2ncnc3[nH]cnc23)cc(Cl)c(C)c1-c1cncc(F)c1 (centres unmarked) [Example 108, N-{1-[5-Chloro-3-(5-fluoropyridin-3-yl)-2-methoxy-4-methylphenyl]ethyl}-9H-purin-6-amine]
< 50 nM	COc1c(C(C)Nc2ncnc3[nH]cnc23)cc(Cl)c(C)c1-c1cncc(C#N)c1 (centres unmarked) [Example 114, 5-{3-chloro-6-methoxy-2-methyl-5-[1-(9H-purin-6-ylamino)ethyl]phenyl}nicotinonitrile]
< 50 nM	COc1c(C(C)Nc2ncnc3[nH]cnc23)cc(Cl)c(C)c1-c1cnc(N)nc1 (centres unmarked) [Example 115, N-{1-[3-(2-aminopyrimidin-5-yl)-5-chloro-2-methoxy-4-methylphenyl]ethyl}-9H-purin-6-amine]
< 50 nM	COc1c(C(C)Nc2ncnc3[nH]cnc23)cc(Cl)c(C)c1-c1cnn(CC#N)c1 (centres unmarked) [Example 117, (4-{3-Chloro-6-methoxy-2-methyl-5-[1-(9H-purin-6-ylamino)ethyl]phenyl}-1H-pyrazol-1-yl)acetonitrile trifluoroacetate]
100 to 250 nM	CCOc1cccc(-c2c(C)c(F)cc(C(C)Nc3ncnc4[nH]cnc34)c2OC)c1 (centres unmarked) [Example 119, N-[1-(3′-ethoxy-5-fluoro-2-methoxy-6-methylbiphenyl-3-yl)ethyl]-9H-purin-6-amine]
50 to 100 nM	COc1c(C(C)Nc2ncnc3[nH]cnc23)cc(F)c(C)c1-c1ccc(C(=O)NC2CC2)cc1 (centres unmarked) [Example 120, N-cyclopropyl-3′-fluoro-6′-methoxy-2′-methyl-5′-[1-(9H-purin-6-ylamino)ethyl]biphenyl-4-carboxamide]
